The record followed here is ChEMBL document CHEMBL1138169, “Oxadiazole derivatives as a novel class of antimitotic agents: Synthesis, inhibition of tubulin polymerization, and activity in tumor cell lines” (Bioorg Med Chem Lett, 2006).

Series [1] can be described thus: Cmax in mouse at 60 mg/kg, ip. The note with it: in vivo. Further details: dose 60 mg/kg, route intraperitoneal. It counts as ADME, organism-based.
A short description of series [2]: Half life in mouse at 60 mg/kg, ip. The series is classed as ADME, organism-based. The settings on record: in vivo. The arrangement: dose 60 mg/kg, route intraperitoneal.
Series [3] is described as follows: AUC (0-4 h) in mouse at 60 mg/kg, ip. It counts as ADME, organism-based. The arrangement: time < 4 hr, dose 60 mg/kg, route intraperitoneal. The settings on record: plasma.
For series [4], the target named is Tubulin. Description: Inhibition of tubulin polymerization. The series is classed as functional, Homo sapiens.
For another series, the system named is A-431. Description: Cell cycle arrest in A431 cells by accumulation at G2/M phase. The settings on record: Homo sapiens. The series is classed as functional, cell-based.
Another series deals with NCI/ADR-RES. Description: Cell cycle arrest in NCI/ADR (MDR) cells by accumulation at G2/M phase. The series is classed as functional, cell-based. The settings on record: Homo sapiens.
Series [5] deals with Tubulin. Description: Displacement of [3H]colchicine from tubulin at 65 nM. It counts as protein-complex assay, Homo sapiens.
The nature of series [6]: Cmax in mouse at 60 mg/kg, po. It counts as ADME, organism-based. The arrangement: dose 60 mg/kg, route oral. The note with it: in vivo.
A short description of series [7]: Half life in mouse at 60 mg/kg, po. The series is classed as ADME, organism-based. Further details: dose 60 mg/kg, route oral. The settings on record: in vivo.
The nature of series [8]: AUC (0-4 h) in mouse at 60 mg/kg, po. The settings on record: plasma. It counts as ADME, organism-based. Further details: time < 4 hr, dose 60 mg/kg, route oral.

In general, Cmax refers to the peak of the concentration-time curve. One may read the half-life as the time in which the quantity being followed falls by half. The term AUC(0-t) denotes exposure summed from dosing to a finite time, without extrapolation to infinity. As for `COc1cc(Nc2ncccc2-c2n[nH]c(Nc3ccc4c(c3)OCO4)n2)cc(OC)c1`, the highest level in [1] (Cmax) was 7.3 µM. This compound also showed a half-life in series [2] of 0.62 h. Moreover, in series [3], the AUC(0-t) at 4 h is 13.6 µM·h.
What is called IC50 is the concentration at which inhibition is half-maximal. A higher IC50 goes with lower potency. A word on the EC50: it is the concentration at which the effect is half-maximal. A lower EC50 goes with an effect from little substance. For the compound `c1cncc(CNc2ncccc2-c2nnc(Nc3ccc4c(c3)OCCO4)o2)c1`, the IC50 was 0.7 µM on Tubulin [4] and 0.03 µM at Tubulin [5]. In addition, the half-maximal effective concentration (EC50) in the series on A-431 was 0.013 µM; in the series with NCI/ADR-RES, 0.019 µM. The compound further came in with a Cmax in series [1] of 6.5 µM. The half-life in series [2] is 0.8 h. In addition, the AUC(0-t) at 4 h in series [3] amounted to 6.7 µM·h.
For the compound `c1ccc(CNc2ncncc2-c2nnc(Nc3ccc4c(c3)OCCO4)o2)nc1`, the half-inhibitory concentration (IC50) against Tubulin [4] was greater than 30 µM.
For `c1cnc(NCc2ccc3c(c2)OCO3)c(-c2nnc(Nc3ccc4c(c3)OCCO4)o2)c1`, the IC50 on Tubulin [4] is 0.5 µM. In the series with A-431, this compound had an EC50 of 0.018 µM.
On the same counts, the results for `CS(=O)(=O)Nc1ccc(CNc2ncccc2-c2nnc(Nc3ccc4c(c3)OCO4)o2)cc1` are 3.8 µM and 0.071 µM.
On the same counts, the results for `Fc1ccc(CNc2ncccc2-c2nnc(Nc3ccc4c(c3)OCCO4)o2)cc1F` are 0.7 µM and 0.015 µM.
On the same counts, the results for `Fc1ccc(CNc2ncccc2-c2nnc(Nc3ccc4c(c3)OCO4)o2)cc1F` are 2.2 µM and 0.051 µM.
Consider `c1ccc(CNc2ccccc2-c2nnc(Nc3ccc4c(c3)OCCO4)o2)nc1`, for which the IC50 at Tubulin [4] came to 1.2 µM; at Tubulin [5], 0.39 µM. Further, the EC50 in the series with A-431 stood at 0.014 µM; in the series on NCI/ADR-RES, 0.037 µM. Besides, in [1], the highest level (Cmax) was 6.4 µM. For the same compound, the half-life in series [2] is 1.5 h. In [3], this compound registered an AUC(0-t) at 4 h of 17.2 µM·h.
Compound `Cc1ccc(-c2nnc(Nc3ccc4c(c3)OCCO4)o2)c(NCc2ccccn2)n1` displayed an IC50 against Tubulin [4] of 2.4 µM. For the same compound, the EC50 with A-431 worked out at 0.099 µM.
As to `CS(=O)(=O)Nc1ccc(CNc2ncccc2-c2nnc(Nc3ccc4c(c3)OCCO4)o2)cc1`, half-maximal inhibition against Tubulin [4] (IC50) was put at 2 µM. The midpoint of the response in the series on A-431, the EC50, lay at 0.023 µM.
`CN(c1ccc2c(c1)OCCO2)c1nnc(-c2cccnc2NCc2ccccn2)o1` had an IC50 at Tubulin [4] greater than 30 µM.
As for `c1ccc(CNc2ccccc2-c2cnc(Nc3ccc4c(c3)OCCO4)o2)nc1`, the IC50 against Tubulin [4] worked out at 1.4 µM; on Tubulin [5] it was 0.01 µM. Also, the EC50 came out at 0.035 µM in the series on A-431 and 0.103 µM with NCI/ADR-RES. Besides, in series [1], the Cmax stood at 4.6 µM. The same compound showed a half-life in [2] of 2.43 h. This compound also had an AUC(0-t) at 4 h in series [3] of 14.4 µM·h.
Turning to `c1cnc(NCc2ccncc2)c(-c2nnc(Nc3ccc4c(c3)OCO4)o2)c1`, the IC50 against Tubulin [4] turned out to be 1 µM; at Tubulin [5] it was 0.03 µM. The EC50 in the series with A-431 was determined as 0.02 µM; with NCI/ADR-RES, 0.0078 µM. Besides, in series [1], the concentration peaked (Cmax) at 15.1 µM. Further, in series [2], the half-life is 2.6 h. The AUC(0-t) at 4 h in [3] amounted to 52.6 µM·h.
In turn, `c1cnc(NCc2ccncc2)c(-c2nnc(Nc3ccc4c(c3)OCCO4)o2)c1` gave an IC50 at Tubulin [4] of 29.9 µM. Also, in the series on A-431, the EC50 worked out at 0.018 µM.
The compound `Fc1ccc(CNc2ncccc2-c2nnc(Nc3ccc4c(c3)OCCO4)o2)cc1` had an IC50 on Tubulin [4] of 5 µM. In the series on A-431, this compound displayed an EC50 of 0.06 µM.
On Tubulin [4], `c1ccc(CNc2ccccc2-c2csc(Nc3ccc4c(c3)OCCO4)n2)nc1` had an IC50 greater than 30 µM.
Same read-out and setting: for `c1ccc(CNc2ccncc2-c2nnc(Nc3ccc4c(c3)OCCO4)o2)nc1` the value was greater than 30 µM.
Take `c1coc(CNc2ncccc2-c2nnc(Nc3ccc4c(c3)OCCO4)o2)c1`: 2 µM corresponded to half-maximal inhibition against Tubulin [4] (IC50). In the series on A-431, this compound returned an EC50 of 0.045 µM.
As for `c1cnc(NCc2ccc3c(c2)OCCO3)c(-c2nnc(Nc3ccc4c(c3)OCCO4)o2)c1`, inhibition at Tubulin [4] was half-maximal at 1.8 µM (IC50). A half-maximal response in the series on A-431 (EC50) required 0.057 µM.
For the compound `c1ccc(CNc2ncccc2-c2nnc(Nc3ccc4c(c3)OCCO4)o2)nc1`, the IC50 against Tubulin [4] was determined as 1.9 µM; on Tubulin [5], 0.19 µM. In addition, the EC50 was found to be 0.016 µM in the series on A-431 and 0.027 µM in the series with NCI/ADR-RES. In addition, the Cmax in [1] is 12.5 µM; in series [6] it was 3.8 µM. In addition, the values for the half-life in series [2] and in series [7] were 2.7 h and 2.2 h, respectively. In addition, the AUC(0-t) at 4 h worked out at 31.2 µM·h in series [3] and 8.8 µM·h in [8].
In turn, `c1ccc(CNc2nccnc2-c2nnc(Nc3ccc4c(c3)OCCO4)o2)nc1` registered an IC50 against Tubulin [4] of 2 µM. Moreover, the EC50 in the series on A-431 amounted to 0.075 µM.
As to `c1ccc(CNc2ccsc2-c2nnc(Nc3ccc4c(c3)OCCO4)o2)nc1`, the 50% inhibitory concentration (IC50) at Tubulin [4] was 4.4 µM; at Tubulin [5], 0.075 µM. In addition, the EC50 was determined as 0.022 µM with A-431 and 0.046 µM with NCI/ADR-RES. This compound displayed a maximum concentration (Cmax) in series [1] of 59.2 µM. Also, in [2], the half-life was 0.75 h. For the same compound, the AUC(0-t) at 4 h in series [3] came to 102 µM·h.
For `c1ccc(CNc2ncccc2-c2nnc(Nc3ccc4c(c3)OCO4)o2)nc1`, the values for the IC50 against Tubulin [4] and on Tubulin [5] were 1.7 µM and 0.03 µM, respectively. Moreover, the 50% effective concentration (EC50) with A-431 was 0.049 µM; with NCI/ADR-RES, 0.256 µM. Besides, the Cmax in [1] amounted to 4.9 µM. For the same compound, the half-life in series [2] is 4.1 h. In series [3], this compound came in with an AUC(0-t) at 4 h of 21.5 µM·h.
At Tubulin [4], `c1ccc(CNc2ccccc2-c2c[nH]c(Nc3ccc4c(c3)OCCO4)n2)nc1` had an IC50 greater than 30 µM.
Consider `COc1ccc(CNc2ncccc2-c2nnc(Nc3ccc4c(c3)OCCO4)o2)cc1`, for which it took 1.6 µM to reach half-maximal inhibition against Tubulin [4] (IC50). The response in the series with A-431 was half-maximal at 0.023 µM (EC50).
The compound `c1cnc(NCc2cnccn2)c(-c2nnc(Nc3ccc4c(c3)OCCO4)o2)c1` yielded an IC50 against Tubulin [4] of 2.2 µM. This compound also had an EC50 in the series with A-431 of 0.031 µM.
At Tubulin [4], `Fc1cnc(NCc2ccccn2)c(-c2nnc(Nc3ccc4c(c3)OCCO4)o2)c1` yielded an IC50 of 3.4 µM. In the series on A-431, this compound had an EC50 of 0.082 µM.
For `c1cnc(NCc2cnccn2)c(-c2nnc(Nc3ccc4c(c3)OCO4)o2)c1`, in that order: 9.6 µM and 0.21 µM.
For `c1cncc(CNc2ncccc2-c2nnc(Nc3ccc4c(c3)OCO4)o2)c1`, the IC50 on Tubulin [4] is 8.8 µM. This compound also gave an EC50 in the series with A-431 of 0.031 µM.
On Tubulin [4], `c1coc(CNc2ncccc2-c2nnc(Nc3ccc4c(c3)OCO4)o2)c1` registered an IC50 of 4.9 µM. For the same compound, the midpoint of the response with A-431, the EC50, lay at 0.13 µM.
`FC1(F)Oc2ccc(Nc3nnc(-c4cccnc4NCc4ccccn4)o3)cc2O1`: at Tubulin [4], the IC50 stood at 13.3 µM. The compound further gave an EC50 in the series on A-431 of 0.78 µM.
For `FC(F)(F)c1ccc(-c2nnc(Nc3ccc4c(c3)OCCO4)o2)c(NCc2ccccn2)n1`, at Tubulin [4], the IC50 was greater than 30 µM.
Take `c1cnc(NCC2CCCO2)c(-c2nnc(Nc3ccc4c(c3)OCCO4)o2)c1` (centres undefined): the half-inhibitory concentration (IC50) was 1.7 µM against Tubulin [4] and 0.39 µM at Tubulin [5]. In addition, the EC50 with A-431 turned out to be 0.16 µM; with NCI/ADR-RES it was 0.128 µM. In series [1], this compound had a Cmax of 16.4 µM. The compound also gave a half-life in [2] of 0.78 h. In series [3], this compound showed an AUC(0-t) at 4 h of 26.3 µM·h.
Regarding `c1ccc(COc2ncccc2-c2nnc(Nc3ccc4c(c3)OCCO4)o2)nc1`, the IC50 against Tubulin [4] was found to be 18.1 µM. The EC50 in the series with A-431 worked out at 0.26 µM.
`COc1ccc(Nc2nnc(-c3cccnc3NCc3ccccn3)o2)cc1`: the midpoint of inhibition against Tubulin [4], the IC50, lay at 1.5 µM. In the series on A-431, the EC50 was found to be 0.02 µM.
On the same counts, the results for `c1cnc(NCC2CCCO2)c(-c2nnc(Nc3ccc4c(c3)OCO4)o2)c1` (centres undefined) are 15.5 µM and 0.33 µM.
In the case of `COc1ccc(/C=C\c2cc(OC)c(OC)c(OC)c2)cc1O` [COMBRETASTATIN A4], the EC50 was found to be 0.0035 µM with A-431 and 0.0015 µM with NCI/ADR-RES.
`CC(=O)O[C@H]1C(=O)[C@@]2(C)[C@H]([C@H](OC(=O)c3ccccc3)[C@]3(O)C[C@H](OC(=O)[C@H](O)[C@@H](NC(=O)c4ccccc4)c4ccccc4)C(C)=C1C3(C)C)[C@]1(OC(C)=O)CO[C@@H]1C[C@@H]2O` [PACLITAXEL]: the values for the EC50 with A-431 and in the series with NCI/ADR-RES were 0.009 µM and greater than 10 µM, respectively.
